This is an account of results in US9399649B2, “Compounds for treating spinal muscular atrophy” (PTC Therapeutics Inc., priority 2012, dated 2016).

In general, melting point refers to the temperature of the solid-liquid transition.

One data set deals with Smn protein. Nature of the data set: Smn protein assay in cultured cells (SMN HTRF). Type of data set: cell-based, human. The following applies: SMA patient fibroblast cells (GM03813), 48 hours; for EC1.5x for Smn protein expression: 7-point concentration curve, concentration producing 1.5 times Smn protein vs DMSO vehicle; for maximum fold (Fold) increase of Smn protein: 7-point concentration data, relative to vehicle control. The gist of the method: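 SMA patient fibroblasts, 5,000 per well in DMEM-10% FBS, exposed 48 h at 37° C. to a 7-point, 3.16-fold compound series in triplicate. RIPA lysates read by SMN HTRF (665/620 nm, overnight at room temperature); ΔF over blank expressed as fold of vehicle.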

Data set [1] concerns full length SMN2 minigene mRNA containing SMN2 exon 7. Briefly: SMN2 minigene mRNA splicing RT-qPCR assay in cultured cells. The following applies: Homo sapiens, HEK293-H; HEK293H cells stably transfected with SMN2-A minigene, 24 hours, 7-point concentration curve; concentration giving 1.5-fold full length SMN2 mRNA vs vehicle; read-out: EC1.5x for production of full length SMN2 mRNA. It is filed as cell-based, human. The gist of the method: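 HEK293H cells stably carrying SMN2-A minigene treated 24 h (37 °C) with compound, 7-point 3.16-fold dilution, duplicates. Multiplex RT-qPCR on lysate with exon 7/luciferase primers and exon 7–8 junction probe (minigene-specific). Full-length transcript normalised to GAPDH by modified ΔΔCt, expressed relative to vehicle-treated cells.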

With `Cc1cn2cc(-c3cc4ccc(N5CCN6CCC[C@@H]6C5)cc4c(=O)o3)cc2c(C)n1` [Cpd 81, 3-(1,3-dimethylpyrrolo[1,2-a]pyrazin-7-yl)-7-[(8aR)-hexahydropyrrolo[1,2-a]pyrazin-2(1H)-yl]-1H-isochromen-1-one], the melting point lay within 218 to 220 °C. In addition, in the data set on Smn protein, the “EC1.5x for Smn protein expression” value is recorded as “**** (an EC1.5×≦0.3 nM is indicated by four stars (****))” and the “maximum fold (Fold) increase of Smn protein” value (“maximum fold (Fold) increase” for short) was “***** (a fold increase >1.65 is indicated by five stars (*****))”. For the same compound, in data set [1], the EC (1.5-fold) was not above 0.1 µM.

The compound `Cc1cn2cc(-c3cc4ccc(N5CCN6CCC[C@H]6C5)cc4c(=O)o3)cc2c(C)n1` [Cpd 80, 3-(1,3-dimethylpyrrolo[1,2-a]pyrazin-7-yl)-7-[(8aS)-hexahydropyrrolo[1,2-a]pyrazin-2(1H)-yl]-1H-isochromen-1-one] had a melting point of 220 to 222 °C. In addition, in the data set with Smn protein, the “EC1.5x for Smn protein expression” value was “**** (an EC1.5×≦0.3 nM is indicated by four stars (****))”; the “maximum fold (Fold) increase” value is “**** (a fold increase between >1.5 and ≦1.65 is indicated by four stars (****))”. Besides, the EC (1.5-fold) in data set [1] was not above 0.1 µM.

Regarding `C[C@H]1CN(c2ccc3cc(-c4cn5cccc(Cl)c5n4)oc(=O)c3c2)CCN1` [Cpd 60, 3-(8-chloroimidazo[1,2-a]pyridin-2-yl)-7-[(3S)-3-methylpiperazin-1-yl]-1H-isochromen-1-one], the melting point is 314 to 316 °C. Besides, the “maximum fold (Fold) increase” value in the data set with Smn protein is “*** (a fold increase between >1.35 and ≦1.5 is indicated by three stars (***))”. For the same compound, in data set [1], the EC (1.5-fold) is 0.3 to 1 µM.

For `Cc1nc(Cl)cn2cc(-c3cc4ccc(N5CCNCC5)cc4c(=O)o3)nc12` [Cpd 99, 3-(6-chloro-8-methylimidazo[1,2-a]pyrazin-2-yl)-7-(piperazin-1-yl)-1H-isochromen-1-one], the melting point is 221 to 226 °C. Besides, in the data set on Smn protein, the “EC1.5x for Smn protein expression” value is “*** (an EC1.5× between >0.3 nM and ≦1 nM is indicated by three stars (***))”; the “maximum fold (Fold) increase” value was “***** (a fold increase >1.65 is indicated by five stars (*****))”. Further, the EC (1.5-fold) in data set [1] is not above 0.1 µM.

For `C[C@H]1CN(c2ccc3cc(-c4nc5ccccc5s4)oc(=O)c3c2)CCN1` [Cpd 36, 3-(1,3-benzothiazol-2-yl)-7-[(3S)-3-methylpiperazin-1-yl]-1H-isochromen-1-one], the melting point was 236 to 238 °C. The “maximum fold (Fold) increase” value in the data set with Smn protein is “* (A maximum fold increase of ≦1.2 is indicated by one star (*))”. Also, the EC (1.5-fold) in data set [1] was in the range of 3 to 30 µM.

For `CCCN1CCN(c2ccc3cc(-c4cn5cc(C)nc(C)c5n4)oc(=O)c3c2)C[C@@H]1C` [Cpd 137, 3-(6,8-dimethylimidazo[1,2-a]pyrazin-2-yl)-7-[(3S)-3-methyl-4-propylpiperazin-1-yl]-1H-isochromen-1-one], the melting point was 249 to 254 °C. In the data set with Smn protein, the “EC1.5x for Smn protein expression” value is “**** (an EC1.5×≦0.3 nM is indicated by four stars (****))” and the “maximum fold (Fold) increase” value is recorded as “***** (a fold increase >1.65 is indicated by five stars (*****))”. The EC (1.5-fold) in data set [1] is not above 0.1 µM.

In turn, `CCc1nc(C)cn2cc(-c3cc4ccc(N5C[C@@H](C)N(C)[C@@H](C)C5)cc4c(=O)o3)nc12` [Cpd 158, 3-(8-ethyl-6-methylimidazo[1,2-a]pyrazin-2-yl)-7-[(3R,5S)-3,4,5-trimethylpiperazin-1-yl]-1H-isochromen-1-one] returned a melting point of 235 to 238 °C. Further, in the data set on Smn protein, the “EC1.5x for Smn protein expression” value is “**** (an EC1.5×≦0.3 nM is indicated by four stars (****))” and the “maximum fold (Fold) increase” value is “***** (a fold increase >1.65 is indicated by five stars (*****))”. Moreover, in data set [1], the EC (1.5-fold) is not above 0.1 µM.

Turning to `COc1ccc(-c2cc3ccc(N4CCN[C@@H](C)C4)cc3c(=O)o2)cc1OC` [Cpd 30, 3-(3,4-dimethoxyphenyl)-7-[(3S)-3-methylpiperazin-1-yl]-1H-isochromen-1-one], the melting point lay in the range of 155 to 157 °C. In addition, in the data set with Smn protein, the “EC1.5x for Smn protein expression” value is listed as “**** (an EC1.5×≦0.3 nM is indicated by four stars (****))”; the “maximum fold (Fold) increase” value is “**** (a fold increase between >1.5 and ≦1.65 is indicated by four stars (****))”. Further, the EC (1.5-fold) in data set [1] is not above 0.1 µM.

`CCN1[C@H](C)CN(c2ccc3cc(-c4cn5cc(C)ncc5n4)oc(=O)c3c2)C[C@@H]1C` [Cpd 129, 7-[(3R,5S)-4-ethyl-3,5-dimethylpiperazin-1-yl]-3-(6-methylimidazo[1,2-a]pyrazin-2-yl)-1H-isochromen-1-one] came in with a melting point of 233 to 238 °C. In addition, in the data set on Smn protein, the “EC1.5x for Smn protein expression” value is “**** (an EC1.5×≦0.3 nM is indicated by four stars (****))” and the “maximum fold (Fold) increase” value is “***** (a fold increase >1.65 is indicated by five stars (*****))”. Moreover, the EC (1.5-fold) in data set [1] is not above 0.1 µM.

For the compound `COc1cccc(-c2cc3ccc(N4C[C@@H](C)N[C@@H](C)C4)cc3c(=O)o2)c1` [Cpd 20, 7-[(3R,5S)-3,5-dimethylpiperazin-1-yl]-3-(3-methoxyphenyl)-1H-isochromen-1-one], the melting point was in the range of 195 to 197 °C. Also, in the data set with Smn protein, the “maximum fold (Fold) increase” value was “* (A maximum fold increase of ≦1.2 is indicated by one star (*))”. For the same compound, the EC (1.5-fold) in data set [1] lay in the range of 3 to 30 µM.

Compound `CCN1CCN(c2ccc3cc(-c4cn5cc(C)nc(C)c5n4)oc(=O)c3c2)CC1` [Cpd 73, 3-(6,8-dimethylimidazo[1,2-a]pyrazin-2-yl)-7-(4-ethylpiperazin-1-yl)-1H-isochromen-1-one] showed a melting point of 238 to 240 °C. Also, in the data set with Smn protein, the “EC1.5x for Smn protein expression” value is “**** (an EC1.5×≦0.3 nM is indicated by four stars (****))” and the “maximum fold (Fold) increase” value is reported as “***** (a fold increase >1.65 is indicated by five stars (*****))”. In addition, the EC (1.5-fold) in data set [1] is not above 0.1 µM.

In turn, `Cc1nc2ccc(-c3cc4ccc(N5CCNCC5)cc4c(=O)o3)cc2s1` [Cpd 103, 3-(2-methyl-1,3-benzothiazol-6-yl)-7-(piperazin-1-yl)-1H-isochromen-1-one] showed a melting point of 271 to 276 °C. Further, in the data set with Smn protein, the “EC1.5x for Smn protein expression” value is “**** (an EC1.5×≦0.3 nM is indicated by four stars (****))”; the “maximum fold (Fold) increase” value was “**** (a fold increase between >1.5 and ≦1.65 is indicated by four stars (****))”. In addition, the EC (1.5-fold) in data set [1] is not above 0.1 µM.

The compound `Cc1cn2cc(-c3cc4ccc(C5CCN(C6COC6)CC5)cc4c(=O)o3)nc2c(C)n1` [Cpd 119, 3-(6,8-dimethylimidazo[1,2-a]pyrazin-2-yl)-7-[1-(oxetan-3-yl)piperidin-4-yl]-1H-isochromen-1-one] gave a melting point of 225 to 227 °C. For the same compound, in the data set with Smn protein, the “EC1.5x for Smn protein expression” value is “*** (an EC1.5× between >0.3 nM and ≦1 nM is indicated by three stars (***))”; the “maximum fold (Fold) increase” value is “***** (a fold increase >1.65 is indicated by five stars (*****))”. In addition, in data set [1], the EC (1.5-fold) fell in the range of 0.1 to 0.3 µM.

`Cc1cn2cc(-c3cc4ccc(N5CCN(C)[C@@H](C)C5)cc4c(=O)o3)nc2cn1` [Cpd 121, 7-[(3S)-3,4-dimethylpiperazin-1-yl]-3-(6-methylimidazo[1,2-a]pyrazin-2-yl)-1H-isochromen-1-one] showed a melting point of 250 to 255 °C. For the same compound, in the data set on Smn protein, the “EC1.5x for Smn protein expression” value is given as “**** (an EC1.5×≦0.3 nM is indicated by four stars (****))” and the “maximum fold (Fold) increase” value is “***** (a fold increase >1.65 is indicated by five stars (*****))”. The EC (1.5-fold) in data set [1] is not above 0.1 µM.

`CCOc1ccc(-c2cc3ccc(N4CCNCC4)cc3c(=O)o2)cc1` [Cpd 51, 3-(4-ethoxyphenyl)-7-(piperazin-1-yl)-1H-isochromen-1-one]: the melting point was 245 °C (dec.). For the same compound, the “maximum fold (Fold) increase” value in the data set with Smn protein is on record as “* (A maximum fold increase of ≦1.2 is indicated by one star (*))”. In addition, the EC (1.5-fold) in data set [1] was 1 to 3 µM.

In the case of `Cc1cn2cc(-c3cc4ccc(N5CCN[C@H](C)C5)cc4c(=O)o3)nc2cn1` [Cpd 125, 3-(6-methylimidazo[1,2-a]pyrazin-2-yl)-7-[(3R)-3-methylpiperazin-1-yl]-1H-isochromen-1-one], the melting point lay within 219 to 225 °C. Also, in the data set with Smn protein, the “EC1.5x for Smn protein expression” value is listed as “**** (an EC1.5×≦0.3 nM is indicated by four stars (****))” and the “maximum fold (Fold) increase” value is “***** (a fold increase >1.65 is indicated by five stars (*****))”. Besides, in data set [1], the EC (1.5-fold) is not above 0.1 µM.

The compound `Cc1nc(Cl)cn2cc(-c3cc4ccc(N5CCN(C)[C@@H](C)C5)cc4c(=O)o3)nc12` [Cpd 112, 3-(6-chloro-8-methylimidazo[1,2-a]pyrazin-2-yl)-7-[(3S)-3,4-dimethylpiperazin-1-yl]-1H-isochromen-1-one] gave a melting point of 270 to 275 °C. Moreover, in the data set with Smn protein, the “EC1.5x for Smn protein expression” value was “** (an EC1.5× between >1 μM, and ≦3 nM is indicated by two stars (**))”; the “maximum fold (Fold) increase” value is “***** (a fold increase >1.65 is indicated by five stars (*****))”. In addition, the EC (1.5-fold) in data set [1] is 1 to 3 µM.

For the compound `COCCN1CC=C(c2ccc3cc(-c4cn5cc(C)nc(C)c5n4)oc(=O)c3c2)CC1` [Cpd 92, 3-(6,8-dimethylimidazo[1,2-a]pyrazin-2-yl)-7-[1-(2-methoxyethyl)-1,2,3,6-tetrahydropyridin-4-yl]-1H-isochromen-1-one], the melting point fell in the range of 174 to 176 °C. Besides, in the data set on Smn protein, the “EC1.5x for Smn protein expression” value is “**** (an EC1.5×≦0.3 nM is indicated by four stars (****))” and the “maximum fold (Fold) increase” value was “***** (a fold increase >1.65 is indicated by five stars (*****))”. Besides, the EC (1.5-fold) in data set [1] was not above 0.1 µM.
